Experimental data reported in PubChem BioAssay (NCI).
Values joined by “and” are separate entries in the source; they are usually repeats but may differ in a detail not shown here. Equal entries are not always repeated.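 Five concentrations, 48 hours, 96-well plates. Here, GI50 denotes the concentration required for 50% inhibition of growth. TGI: total growth inhibition.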 *1 amine or outer side, *2 acyl side, *3 side chain or, on linkers, in order; H or OH if unused. Where a SMILES comes first, the peptide text is derived from it. Bridges are numbered along the chain shown (N, C = ends). [ ]: non-standard residue; d: D form. X35 = CC[C@H](C)[C@@H](N[*:1])[C@@H](O)CC(=O)O[C@H](C(=O)[C@H](C)C(=O)[*:2])C(C)C; NMeY = CN[C@@H](Cc1ccc(O)cc1)C(=O)O

Experiments:
Experiment in all cases: NCI-60 cell line screen, 48 h; in the data active means GI50 below about 0.43 µM; inactive means the rest
[1] = test system: DU-145 prostate
[2] = test system: MCF7 breast
[3] = test system: SK-MEL-28 melanoma
[4] = test system: OVCAR-8 ovarian
[5] = test system: SF-295 CNS
[6] = test system: UACC-257 melanoma
[7] = test system: SN12C renal
[8] = test system: OVCAR-5 ovarian
[9] = test system: CAKI-1 renal
[10] = test system: RXF 393 renal
[11] = test system: HOP-62 NSCLC
[12] = test system: OVCAR-4 ovarian
[13] = test system: PC-3 prostate
[14] = test system: KM12 colon
[15] = test system: SNB-19 CNS
[16] = test system: HCC-2998 colon
[17] = test system: HL-60(TB) leukemia

C[C@@H]1S[C@H](c2c(F)cccc2Cl)n2c1nc1ccccc12
88.9 µM: TGI [15]
20.5 µM: TGI [14]
76.5 µM: TGI [9]
29 µM: TGI [7]
28.8 µM: TGI [10]
42 µM: TGI [5]
37 µM: TGI [12]
38.5 µM: TGI [6]
23.7 µM: TGI [13]
29.4 µM: TGI [11]
> 100 µM: TGI [1] | TGI [4] | TGI [8]
26.5 µM: TGI [3] | TGI [16]
81.8 µM: TGI [2]

O=C(O)CCC(NC(=O)c1ccc(Nc2cnc3cc(C(F)(F)F)ccc3n2)cc1)C(=O)O (centres undefined)
> 100 µM: TGI [2] | TGI [3] | TGI [4] | TGI [5] | TGI [6] | TGI [7] | TGI [8] | TGI [10] | TGI [11] | TGI [12] | TGI [17] | TGI [14] | TGI [15] | TGI [16]

CC[C@H](C)[C@@H]([C@@H](CC(=O)N1CCC[C@H]1[C@H](OC)[C@@H](C)C(=O)NCCc1ccccc1)OC)N(C)C(=O)C(NC(=O)[C@H](C(C)C)N(C)C)C(C)C (some centres undefined)
0.00228 µM: TGI [16]
> 10 µM: TGI [2] | TGI [3] | TGI [4] | TGI [6] | TGI [8] | TGI [9] | TGI [10] | TGI [12]
active: GI50 [5] 0.000281 µM | GI50 [8] 0.000592 µM
3.02 µM: TGI [11]
0.00178 µM: TGI [14]
0.000963 µM: TGI [1]
0.00499 µM and 0.00515 µM: TGI [7]

C=C1CC[C@@H]2C13[C@@H]1[C@H](CC(=O)[C@@]23C)C1(C)C (some centres undefined)
> 100 µM: TGI [1] | TGI [2] | TGI [3] | TGI [4] | TGI [5] | TGI [6] | TGI [7] | TGI [8] | TGI [9] | TGI [10] | TGI [11] | TGI [12] | TGI [13] | TGI [17] | TGI [14]

CCc1n[nH]c(=O)n1CC
> 100 µM: TGI [1] | TGI [2] | TGI [3] | TGI [4] | TGI [5] | TGI [6] | TGI [7] | TGI [8] | TGI [9] | TGI [11] | TGI [12] | TGI [17] | TGI [14] | TGI [15] | TGI [16]

Cc1cc(O)c2c(c1)C(=O)c1c(c(O)cc(O)c1-c1c(O)cc(O)c3c1C(=O)c1cc(C)cc(O)c1C3=O)C2=O
70.8 µM: TGI [3]
26.9 µM: TGI [12]
76.5 µM: TGI [10]
32.3 µM: TGI [11]
47 µM: TGI [4]
50 µM: TGI [6]
41.2 µM: TGI [7]
38.3 µM: TGI [5]
85 µM: TGI [8]
12.4 µM: TGI [15]
51.4 µM: TGI [9]
64.2 µM: TGI [14]
35.2 µM: TGI [16]
48.8 µM: TGI [2]
18.6 µM: TGI [17]

CC[C@H](C)[C@H]1NC(=O)[C@@H](N)[C@@H](C)OC(=O)[C@H](Cc2ccc(OC)cc2)N(C)C(=O)[C@@H]2CCCN2C(=O)[C@H](CC(C)C)NC(=O)[C@@H](C)C(=O)[C@H](C(C)C)OC(=O)C[C@@H]1O (H-T[X35]LP[NMeY](Me); ester 1-C)
68.1 µM: TGI [14]
> 100 µM: TGI [2] | TGI [3] | TGI [4] | TGI [5] | TGI [6] | TGI [7] | TGI [8] | TGI [10] | TGI [11] | TGI [12] | TGI [13] | TGI [17] | TGI [15] | TGI [16]

C=C1CN=C(Nc2ccc(Cl)cc2)S1
> 100 µM: TGI [1] | TGI [2] | TGI [3] | TGI [4] | TGI [5] | TGI [6] | TGI [7] | TGI [8] | TGI [11] | TGI [12] | TGI [13] | TGI [14] | TGI [15] | TGI [16]
> 10 µM: TGI [9] | TGI [17]

O=C(NN1C(=O)CS(=O)(=O)C1c1ccc(Cl)c(Cl)c1)c1ccncc1 (centres undefined)
> 90.4 µM: TGI [17]
> 100 µM: TGI [2] | TGI [3] | TGI [4] | TGI [5] | TGI [6] | TGI [7] | TGI [8] | TGI [9] | TGI [10] | TGI [11] | TGI [12] | TGI [14] | TGI [15] | TGI [16]

CC1(C)CC[C@]2(C(=O)O)CC[C@]3(C)C(=CCC4=C5C[C@H](O)[C@H](O)[C@@](C)(CO)[C@@]5(C)CC[C@]43C)[C@@H]2C1
> 100 µM: TGI [1] | TGI [2] | TGI [3] | TGI [4] | TGI [5] | TGI [6] | TGI [7] | TGI [8] | TGI [11] | TGI [13] | TGI [17] | TGI [14] | TGI [15]
71.4 µM: TGI [12]
87.2 µM: TGI [9]
64.1 µM: TGI [16]

O=C(Sc1c(-c2ccccc2)c(=O)n(-c2ccccc2)c(=S)n1-c1ccccc1)c1ccccc1
> 100 µM: TGI [1] | TGI [2] | TGI [3] | TGI [4] | TGI [5] | TGI [6] | TGI [7] | TGI [8] | TGI [9] | TGI [11] | TGI [12] | TGI [13] | TGI [17] | TGI [14] | TGI [15]

Cc1[nH]c(C)c(CN(C)C)c1CN(C)C
> 100 µM: TGI [1] | TGI [2] | TGI [3] | TGI [4] | TGI [5] | TGI [6] | TGI [7] | TGI [8] | TGI [9] | TGI [10] | TGI [11] | TGI [12] | TGI [13] | TGI [14] | TGI [15] | TGI [16]

COc1ccccc1-n1nnc2c(N)nc(N)nc21
> 100 µM: TGI [1] | TGI [2] | TGI [3] | TGI [4] | TGI [5] | TGI [6] | TGI [7] | TGI [8] | TGI [9] | TGI [11] | TGI [12] | TGI [13] | TGI [17] | TGI [14] | TGI [15]

C/C=C/c1cc2c(cc1O)CC[C@@H]1[C@@H]2CC[C@]2(C)[C@@H](O)CC[C@@H]12
3.05 µM: TGI [1]
14.2 µM: TGI [5]
21.1 µM: TGI [9]
1.28 µM: TGI [2]
18.1 µM: TGI [4]
27.2 µM: TGI [12]
1.3 µM: TGI [10]
16.3 µM: TGI [11]
14.9 µM: TGI [15]
13.4 µM: TGI [14]
20.5 µM: TGI [7]
22.4 µM: TGI [6]
7.13 µM: TGI [16]
21.6 µM: TGI [3]
25.4 µM: TGI [8]
23 µM: TGI [13]
